According to patent US20260355199A1, “COMPOSITIONS AND METHODS FOR TREATING OR PREVENTING NONALCOHOLIC STEATOHEPATITIS (NASH), ANOREXIA, DEPRESSION, ENDOMETRIOSIS, AND OTHER DISEASES OR DISORDERS” (priority 2022, published 2026):
“Also recorded” adds a separate entry of the source.

Key:
TET3 = TET3 protein level (immunoblot/immunofluorescence) in GT1-7 cells; type: cell-based, mouse; conditions: 10 μM
Experimental: Mouse GT1-7 hypothalamic neuronal cell line (Sigma-Aldrich, SCC116), human SH-SY5Y neuronal blastoma cell line (ATCC, CRL-2266), and embryonic mouse hypothalamus cell line N11 (mHypoE-N11) (Cedarlane, CLU107) were purchased and cultured according to the manufacturers' instructions. For siRNA transfection in a 24-well plate scale, cells were seeded at a density of 2×10^5 cells/well the day before transfection. To prepare siRNA transfection solution for each well of cells, 5 pmol of NT siRNA (non-targeting control siRNA, AM4636, Ambion), Tet3 siRNA (siRNA specifically targeting mouse Tet3, 4390815/s101483, Ambion), or TET3 siRNA (siRNA specifically targeting human TET3, 4392420/s47238, Ambion) (Cao et al., 2019, Oncogene, 38:5356-5366; Xu et al., 2020, Cell Rep., 30:1310-1318) were mixed with 25 μl of OPTI-MEM (Gibco, 31985-070) by gentle pipetting (Cao, T. et al., 2019, Oncogene, 38:5356-5366; Xu, Y. et al., 2020, Cell Reports, 30:1310-1318 e5). In parallel, 1.5 μl of Lipofectamine RNAiMAX (Invitrogen, 13778-150) was mixed with 25 μl of OPTI-MEM by gentle pipetting. […]
For Bobcat339 treatment (FIG. 15A and FIG. 15B), GT1-7 cells grown in 24-well plates at 2×10^5 cells/well were incubated with vehicle or Bobcat339 at a final concentration of 10 μM for 6 h, followed by RNA and protein extractions. […] Protein and RNA were isolated 48 h later and analyzed. […]

AGRP, NPY and SLC32A1 = AGRP, NPY and SLC32A1 mRNA in SH-SY5Y cells; type: cell-based, human; conditions: 10 μM, 48 h
Description: Mouse GT1-7 hypothalamic neuronal cell line (Sigma-Aldrich, SCC116) and human SH-SY5Y neuroblastoma cell line (Sigma Aldrich, 94030304) were purchased and cultured according to the manufacturers' instructions. Purified Ad-TET3 adenovirus (Ad-FLAG.h-TET3, ADV-225322, Vector Biolabs) expressing human TET3 from a CMV promoter and Ad-GFP control adenovirus (1060, Vector Biolabs) were purchased.
For Bobcat339 treatment (FIG. 15A and FIG. 15B), GT1-7 cells grown in 24-well plates at 2×10^5 cells/well were incubated with vehicle or Bobcat339 at a final concentration of 10 μM for 6 h, followed by RNA and protein extractions. […] Protein and RNA were isolated 48 h later and analyzed.
Total RNAs were extracted from neuronal cells or homogenized hypothalamic arcuate nucleus tissue samples using PureLink RNA Mini Kit (Ambion, 12183025). cDNA was synthesized using PrimeScript RT Reagent Kit in a 20 μl reaction containing 0.5-1 μg of total RNA. Real-time quantitative PCR was performed in a 15 μl reaction containing 0.5-1 μl of cDNA using SsoAdvanced Universal SYBR Green Supermix in a Bio-Rad iCycler. […]

Plasma corticosterone = type: in vivo, mouse; conditions: ABA mice
Experimental: For corticosterone, blood samples were obtained via retroorbital bleeding between 19:00 and 20:00. For alanine transaminase, aspartate transaminase and bilirubin, blood samples were collected by cardiac puncture of terminally anesthetized animals. All blood samples were collected in EDTA tubes (Microtainer with K2EDTA, BD, 365974). The tubes were centrifuged at 2,000×g at 4 °C for 20 min, and plasma was collected and stored at −80 °C until use. Plasma corticosterone levels were measured using Corticosterone ELISA kit (Enzo, ADI-900-097) according to the manufacturer's instructions. Kits used to measure alanine transaminase (EALT-100) and aspartate transaminase (EASTR-100) were purchased from Bioassay Systems. The bilirubin assay kit (MAK126) was purchased from Sigma Aldrich.

[1] = Tolerability of Bobcat339 in mice; type: in vivo, mouse; conditions: disease models in mice

Nc1nc(=O)n(-c2cccc(-c3ccccc3)c2)cc1Cl [Bobcat339, 4-Amino-1-[1,1′-biphenyl]-3-yl-5-chloro-2(1H)-pyrimidinone]
TET3 protein level (TET3; 6 h): a decrease in the protein level of TET3; also recorded: rapidly decreased the level of TET3 protein; also recorded: decreased TET3 expression at the protein level | TET3 protein level (TET3; 48 h, without exogenous TET3): decreased the level of TET3 protein | AGRP, NPY and SLC32A1 mRNA levels (AGRP, NPY and SLC32A1): significant increases in Agrp/NPY mRNAs | plasma cortisol levels (Plasma corticosterone): reduced plasma cortisol levels | side effects / toxicity [1]: without discernible toxicity; also recorded: without discernible side effects; also recorded: no discernible toxicity
